The record followed here is patent US11053234B2 (GlaxoSmithKline Intellectual Property Development Limited, priority 2016, dated 2021).

Some results are limits rather than exact numbers.

The target of the experiment is T1, haematopoietic prostaglandin D synthase (H-PGDS) (Homo sapiens, UniProt O60760).
T1 construct: Full length human H-PGDS cDNA (Invitrogen Ultimate ORF 10H13026) was amplified by PCR; 6-His (N); TEV protease cleavage site (N); made in house; host or cells: E. coli BL21 (DE3*), vector pET22b+
T1 sequence (O60760 whole entry): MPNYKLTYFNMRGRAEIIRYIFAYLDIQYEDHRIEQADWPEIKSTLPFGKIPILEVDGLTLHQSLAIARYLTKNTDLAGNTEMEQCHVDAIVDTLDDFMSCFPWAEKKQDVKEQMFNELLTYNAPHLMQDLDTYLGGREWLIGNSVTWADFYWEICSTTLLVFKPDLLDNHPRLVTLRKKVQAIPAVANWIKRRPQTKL
Briefly: H-PGDS RapidFire high throughput mass spectrometry assay (conversion of PGH2 to PGD2). The class given is biochemical. Particulars: 10 nM H-PGDS, PGH2 formed in situ by COX-2 from arachidonic acid; read-out: Potency Range (mean pIC50) (converted). In outline: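 PGH2 substrate generated in situ by COX-2 (full-length human, FLAG-tagged, Sf9-expressed) from arachidonic acid at ˜10 μM, then converted by full-length human His-tagged H-PGDS (E. coli-expressed). RapidFire SPE–triple quadrupole MS measured PGD2 against PGF2α as substrate surrogate to give percent conversion.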
As for `Cc1nc(NC(=O)[C@H]2C[C@H](Oc3cccc4cccnc34)C2)oc1C` [Example 175, (trans)-N-(4,5-Dimethyloxazol-2-yl)-3-(quinolin-8-yloxy)cyclobutanecarboxamide], the IC50 was 10 to 79.4 nM.

On to `COc1ccc(F)cc1O[C@H]1C[C@H](C(=O)Nc2ncc(C(C)(C)O)s2)C1` [Example 165, (trans)-3-(5-Fluoro-2-methoxyphenoxy)-N-(5-(2-hydroxypropan-2-yl)thiazol-2-yl)cyclobutanecarboxamide], for which the IC50 was 10 to 79.4 nM.

`O=C(NC1CN(c2ncc(F)cn2)C1)[C@H]1C[C@H](Oc2cc(F)ccc2OC(F)F)C1` [Example 8, (trans)-3-(2-(Difluoromethoxy)-5-fluorophenoxy)-N-(1-(5-fluoropyrimidin-2-yl)azetidin-3-yl)cyclobutanecarboxamide]: the IC50 was 10 to 79.4 nM.

With `O=C(Nc1cncnc1)[C@H]1C[C@H](Oc2cc(F)ccc2OC(F)F)C1` [Example 22, (trans)-3-(2-(Difluoromethoxy)-5-fluorophenoxy)-N-(pyrimidin-5-yl)cyclobutanecarboxamide], the IC50 is 100 to 1000 nM.

`COc1ccc(F)cc1O[C@H]1C[C@H](C(=O)NC2CC3(C2)CC(C(C)(C)O)C3)C1` (mixture of isomers) [Example 160, Racemic (trans)-3-(5-Fluoro-2-methoxyphenoxy)-N-(6-(2-hydroxypropan-2-yl)spiro[3.3]heptan-2-yl)cyclobutanecarboxamide]: the IC50 was below 10 nM.

As to `CC(N[C@H]1CC[C@H](NC(=O)[C@H]2C[C@H](Oc3cc(F)cc4scnc34)C2)CC1)C(F)F` (mixture of isomers) [Example 121, Racemic (trans)-N-((trans)-4-((1,1-Difluoropropan-2-yl)amino)cyclohexyl)-3-((6-fluorobenzo[d]thiazol-4-yl)oxy)cyclobutanecarboxamide], the IC50 is 10 to 79.4 nM.

As for `CC(C)(O)c1csc(NC(=O)[C@H]2C[C@H](Oc3cccc4scnc34)C2)n1` [Example 55, (trans)-3-(Benzo[d]thiazol-4-yloxy)-N-(4-(2-hydroxypropan-2-yl)thiazol-2-yl)cyclobutanecarboxamide], the IC50 was 10 to 79.4 nM.

As to `CC(=O)c1cnc(NC(=O)[C@H]2C[C@H](Oc3cccc4ccoc34)C2)s1` [Example 264, (trans)-N-(5-Acetylthiazol-2-yl)-3-(benzofuran-7-yloxy)cyclobutanecarboxamide], the IC50 is 10 to 79.4 nM.

Consider `CCOC(=O)c1csc(NC(=O)[C@H]2C[C@H](Oc3cc(F)ccc3OC(F)F)C2)n1` [Example 31, ethyl 2-((trans)-3-(2-(difluoromethoxy)-5-fluorophenoxy)cyclobutanecarboxamido)thiazole-4-carboxylate], for which the IC50 is below 10 nM.

For the molecule `CCOC(=O)c1csc(NC(=O)[C@H]2C[C@H](Oc3cccc4cccnc34)C2)n1` [Example 192, Ethyl 2-((trans)-3-(quinolin-8-yloxy)cyclobutanecarboxamido)thiazole-4-carboxylate], the IC50 was below 10 nM.

In the case of `O=C1CC(NC(=O)[C@H]2C[C@H](Oc3cc(F)ccc3OC(F)F)C2)c2ccccc2N1` (mixture of isomers) [Example 25, Racemic (trans)-3-(2-(Difluoromethoxy)-5-fluorophenoxy)-N-(2-oxo-1,2,3,4-tetrahydroquinolin-4-yl)cyclobutanecarboxamide], the IC50 was 10 to 79.4 nM.

Take `CC(O)(CO[C@H]1CC[C@H](NC(=O)[C@H]2C[C@H](Oc3cc(F)ccc3OC(F)F)C2)CC1)C1CC1` (mixture of isomers) [Example 11, Racemic (trans)-N-((trans)-4-(2-Cyclopropyl-2-hydroxypropoxy)cyclohexyl)-3-(2-(difluoromethoxy)-5-fluorophenoxy)cyclobutanecarboxamide]: the IC50 is 10 to 79.4 nM.

Take `CC(=O)c1csc(NC(=O)[C@H]2C[C@H](Oc3cc(Cl)ccc3OC(F)F)C2)n1` [Example 272, (trans)-N-(4-Acetylthiazol-2-yl)-3-(5-chloro-2-(difluoromethoxy)phenoxy)cyclobutanecarboxamide]: the IC50 was 10 to 79.4 nM.

Consider `CC(C)(O)[C@@H]1CC[C@@H](NC(=O)[C@H]2C[C@H](Oc3cccc4cccnc34)C2)CO1` (racemic) [Example 195, Racemic (trans)-N-((trans)-6-(2-Hydroxypropan-2-yl)tetrahydro-2H-pyran-3-yl)-3-(quinolin-8-yloxy)cyclobutanecarboxamide], for which the IC50 is 100 to 1000 nM.

With `COCCNc1nccc(N2CC(NC(=O)[C@H]3C[C@H](Oc4cccc5scnc45)C3)C2)n1` [Example 72, (trans)-3-(Benzo[d]thiazol-4-yloxy)-N-(1-(2-((2-methoxyethyl)amino)pyrimidin-4-yl)azetidin-3-yl)cyclobutanecarboxamide], the IC50 was 100 to 1000 nM.

On to `CC(C)(O)[C@H]1CC[C@H](NC(=O)[C@H]2C[C@H](Oc3cccn4ccnc34)C2)CC1` [Example 298, (trans)-N-((trans)-4-(2-Hydroxypropan-2-yl)cyclohexyl)-3-(imidazo[1,2-a]pyridin-8-yloxy)cyclobutanecarboxamide], for which the IC50 is 100 to 1000 nM.

On to `O=C(NC1CCc2ccccc21)[C@H]1C[C@H](Oc2cccc3cccnc23)C1` (mixture of isomers) [Example 212, Racemic (trans)-N-(2,3-Dihydro-1H-inden-1-yl)-3-(quinolin-8-yloxy)cyclobutanecarboxamide], for which the IC50 was 10 to 79.4 nM.

As for `COc1ccc(F)cc1O[C@H]1C[C@H](C(=O)NC2CC(=O)Nc3ccccc32)C1` (mixture of isomers) [Example 153, Racemic (trans)-3-(5-Fluoro-2-methoxyphenoxy)-N-(2-oxo-1,2,3,4-tetrahydroquinolin-4-yl)cyclobutanecarboxamide], the IC50 was 10 to 79.4 nM.

Turning to `CC(C)(O)[C@H]1CC[C@H](NC(=O)N2CC(Oc3cccc4scnc34)C2)CC1` [Example 108, 3-(Benzo[d]thiazol-4-yloxy)-N-((trans)-4-(2-hydroxypropan-2-yl)cyclohexyl)azetidine-1-carboxamide], the IC50 was 10 to 79.4 nM.

For the molecule `O=C(NC1CN(c2ccc(F)cn2)C1)N1CC(Oc2cc(F)cc3scnc23)C1` [Example 119, 3-((6-Fluorobenzo[d]thiazol-4-yl)oxy)-N-(1-(5-fluoropyridin-2-yl)azetidin-3-yl)azetidine-1-carboxamide], the IC50 was 10 to 79.4 nM.

Turning to `CC(C)(O)[C@@H]1CC[C@@H](NC(=O)N2CC(Oc3cccc4scnc34)C2)CO1` (racemic) [Example 104, Racemic 3-(Benzo[d]thiazol-4-yloxy)-N-((trans)-6-(2-hydroxypropan-2-yl)tetrahydro-2H-pyran-3-yl)azetidine-1-carboxamide], the IC50 was 10 to 79.4 nM.

Turning to `O=C(NC1CN(c2ccccn2)C1)N1CC(Oc2cc(F)cc3scnc23)C1` [Example 132, 3-((6-Fluorobenzo[d]thiazol-4-yl)oxy)-N-(1-(pyridin-2-yl)azetidin-3-yl)azetidine-1-carboxamide], the IC50 is 10 to 79.4 nM.

As for `O=C(Nc1nccs1)[C@H]1C[C@H](Oc2cccc3cccnc23)C1` [Example 184, trans-3-(8-Quinolinyloxy)-N-1,3-thiazol-2-ylcyclobutanecarboxamide], the IC50 is below 10 nM.

Turning to `O=C(c1csc(NC(=O)[C@H]2C[C@H](Oc3cccc4cccnc34)C2)n1)C1CC1` [Example 194, (trans)-N-(4-(Cyclopropanecarbonyl)thiazol-2-yl)-3-(quinolin-8-yloxy)cyclobutanecarboxamide], the IC50 was 10 to 79.4 nM.
